Results as given in patent US7253177B2, “Synthesis and antimalarial activity of pyrrolo[3,2-f]quinazoline-1,3-diamine derivatives” (United States of America as Represented by the Secretary of …, priority 2004, dated 2007).
≈ marks a conversion by molar mass, not a printed value. Like-named read-outs stand apart in the source and are kept apart here.

Experiments:
[1] = test system: Plasmodium falciparum D-6 clone (CDC Sierra Leone I); assay: In vitro antimalarial study, [3H]hypoxanthine uptake, D-6 clone; format: cell-based; details: Plasmodium falciparum, read-out: IC50 D-6
Procedure: (§1) B. Antimalarial Activities: (a). In Vitro Antimalarial Studies. The in vitro assays were conducted by using a modification of the semiautomated microdilution technique of Desjardins et al and Chulay et al.. Four P. falciparum malaria parasite clones, from CDC Indochina III (W-2), CDC Sierra Leone I (D-6), Southeast Asia Isolates (TM91C235) and RCS (Isolates from Brazil) were utilized in susceptibility testing. They were derived by direct visualization and micromanipulation from patient isolates. The W-2 clone is susceptible to mefloquine but resistant to chloroquine, sulfadoxine, pyrimethamine, and quinine, whereas the D-6 clone is naturally resistant to mefloquine but susceptible to chloroquine, sulfadoxine, pyrimethamine and quinine. Test compounds were initially dissolved in DMSO and diluted 400 fold in RPMI 1640 culture medium supplemented with 25 mM Hepes, 32 mM NaHCO3 and 10% Albumax I (Gibco BRL, Grand Island, N.Y.). These solutions were subsequently serially diluted two-fold with a Biomek 1000 (Beckman, Fullerton, Calif.) over 11 different concentrations. The parasites were exposed to serial dilutions of each compound for 48 hrs and incubated at 37° C. with 5% O2, 5% CO2 and 90% N2 prior to the addition of [^3H]hypoxanthine. After a further incubation of 18 hrs, parasite DNA was harvested from each microtiter well using Packard Filtermate 196 Harvester (Meriden, Conn.) onto glass filters. Uptake of [^3H]hypoxanthine was measured with a Packard Topcount Scintillation. Concentration-response data were analyzed by a non-linear regression logistic dose response model and the IC50 values (50% inhibitory concentrations) for each compound were calculated. (Table 3). (b). In Vivo Antimalarial Studies against P. berghei in mice: The in vivo efficacy of the artelinic acid analogs were determined in a modified Thompson test. This test measures the survivability of mice and parasitemia clearance following administration of drug on days 3-5 post infection. In brief, 5×10^6 P. berghei-infected erythrocytes (KBG-173 strain) were inoculated intraperitoneally to female mice that weighed 24-30 g. By day three post-infection, parasitemia ranged from 1.0-3.7%. Each drug, dissolved in 5% sodium bicarbonate, was administered PO twice daily from day 3-5 post-infection. Total doses for each drug ranged from 1.5-384 mg/kg with 8 mice included in each dosage group. The percent suppression of parasitemia in the treated mice compared to the untreated controls was determined for each test compound; the SD-50 (fifty percent suppression dose) and SD-90 were determined from a non-linear regression logistic dose response fit at day 6 parasitemia data. Survival of mice to day 60 post-infection was considered a cure (C). Compounds were considered active (A) when the survival time of the treated mice was greater than twice the control mice, i.e., 12-14 day (Table 4-5). (c). Sporozoite Induced Test Each compound is ground with a mortar & pestle and suspended in 0.5% hydroxyethylcellulose—0.1% Tween 80 for compounds to be administered PO and those given SC are suspended in peanut oil. Each compound is prepared at 3 different dose levels as requested by WRAIR. Compounds are administered either PO or SC to mice once 4 hr before inoculation of sporozoites. Four-week-old male CD-1 mice, purchased from Charles River and weighing 16-17 g, are placed 5 per cage and allowed to acclimate for 4 days before being treated and then inoculated with sporozoites. They are fed food and water ad-lib and maintained at 76° F. with 12 hr light and 12 hr darkness. The cages and water bottles are changed biweekly. The mice are weighed on Days 0, 3 and 6 then biweekly when blood films are taken. Plasmodium yoelii (17×) is used to infect mice that will be used to infect the mosquitoes. Mice are given a single dose of test compound 4 hr before being inoculated intraperitoneally with 2.5×10^5 sporozoites of Plasmodium yoelii on Day 0. […]

[2] = test system: Plasmodium falciparum W-2 clone (CDC Indochina III); assay: In vitro antimalarial study, [3H]hypoxanthine uptake, W-2 clone; format: cell-based; details: Plasmodium falciparum, read-out: IC50 W-2
Procedure: as §1

[3] = test system: Plasmodium falciparum RCS (Isolates from Brazil); assay: In vitro antimalarial study, [3H]hypoxanthine uptake, RCS clone; format: cell-based; details: Plasmodium falciparum; P. falciparum RCS clone
Procedure: as §1

[4] = test system: Plasmodium falciparum TM91C235 (Southeast Asia Isolates); assay: In vitro antimalarial study, [3H]hypoxanthine uptake, TM91C235 clone; format: cell-based; details: Plasmodium falciparum, read-out: IC50 TM91C235
Procedure: as §1

Plasmodium berghei = assay: Antimalarial activity against Plasmodium berghei in mice by subcutaneous injection; format: in vivo
[5] = test system: Plasmodium berghei (KBG-173 strain); format: in vivo; details: mice, oral
Procedure: as §1

[6] = Death rates after single intragastric treatment in rats; format: in vivo; details: for Day of Death: number of deaths: rats
[7] = Solubility in common organic solvents and water; format: physicochemical
P. falciparum = details: background, reported; cited from earlier work
P. berghei = details: rodent model; cited from earlier work
[8] = mice; cited from earlier work
[9] = Aotus monkey; cited from earlier work
[10] = test system: D-6, RCS, W-2 and TM91C235 clones of Plasmodium falciparum; assay: In vitro tests against D-6, RCS, W-2 and TM91C235 clones; format: cell-based; details: sensitive and drug resistant P. falciparum cell lines
Procedure: B. Antimalarial Activities: (a). In Vitro Antimalarial Studies. The in vitro assays were conducted by using a modification of the semiautomated microdilution technique of Desjardins et al and Chulay et al.. Four P. falciparum malaria parasite clones, from CDC Indochina III (W-2), CDC Sierra Leone I (D-6), Southeast Asia Isolates (TM91C235) and RCS (Isolates from Brazil) were utilized in susceptibility testing. They were derived by direct visualization and micromanipulation from patient isolates. […] Uptake of [^3H]hypoxanthine was measured with a Packard Topcount Scintillation. Concentration-response data were analyzed by a non-linear regression logistic dose response model and the IC50 values (50% inhibitory concentrations) for each compound were calculated. […] In Vivo Antimalarial Studies against P. berghei in mice: The in vivo efficacy of the artelinic acid analogs were determined in a modified Thompson test. […] The percent suppression of parasitemia in the treated mice compared to the untreated controls was determined for each test compound; the SD-50 (fifty percent suppression dose) and SD-90 were determined from a non-linear regression logistic dose response fit at day 6 parasitemia data. […]

With `Nc1nc(N)c2c(ccc3c2ccn3Cc2ccccc2C(F)(F)F)n1` [Compound 1, 7-[(2-Trifluoromethyl-phenyl)methyl]-7H-pyrrolo[3,2-f]quinazoline-1,3-diamine, reference compound] the IC50 [1] was 0.0191 ng/mL (≈ 0.0535 nM), the IC50 [2] was 0.445 ng/mL (≈ 1.25 nM) and the IC50 [3] was 0.357 ng/mL (≈ 0.999 nM). For the same molecule, the IC50 [4] was 1.22 ng/mL (≈ 3.41 nM), the “# Mice Alive Day 31/Total” value (Plasmodium berghei; 20 mg/kg/day) was 5/7 and the “# Mice Alive Day 31/Total” value (Plasmodium berghei; 40 mg/kg/day) was 0/7. The “# Mice Alive Day 31/Total” value (Plasmodium berghei; 10-2.5 mg/kg/day) was 7/7, the “# Mice Dead/Day Died” value (Plasmodium berghei; 10-2.5 mg/kg/day) was “none” and the “# Mice Alive Day 30/Total” value ([5]; 40 mg/kg/day) was 4/5. For the same molecule, the “# Mice Dead/Day Died” value ([5]; 40 mg/kg/day) was 1/17, the “# Mice Alive Day 30/Total” value ([5]; 20-1.25 mg/kg/day) was 5/5 and the “# Mice Dead/Day Died” value ([5]; 20-1.25 mg/kg/day) was “none”. The Deaths ([6]; rats n=4, single intragastric 25 mg/kg in 1% CMC suspension) was 0/4, the Deaths ([6]; rats n=4, single intragastric 50 mg/kg in 1% CMC suspension) was 0/4 and the Deaths ([6]; rats n=4, single intragastric 100 mg/kg in 1% CMC suspension) was 0/4. The Deaths ([6]; rats n=4, single intragastric 200 mg/kg in 1% CMC suspension) was 1/4, the Deaths ([6]; rats n=4, single intragastric 400 mg/kg in 1% CMC suspension) was 3/4 and the “Day of Death: number of deaths” value ([6]; 200 mg/kg, fourth cell after Deaths (day uncertain)) was 1. For the same molecule, the “Day of Death: number of deaths” value ([6]; 400 mg/kg, second cell after Deaths (day uncertain)) was 1, the “Day of Death: number of deaths” value ([6]; 400 mg/kg, third cell after Deaths (day uncertain)) was 2 and the solubility [7] was “sparingly soluble”. For the same molecule, the “IC50 against P. falciparum in vitro” value (P. falciparum) was ~0.01 ng/mL (≈ 0.028 nM), the “100% curative oral dose against P. berghei” value (P. berghei) was <0.1 to 4 mg/kg and the “subcutaneous LD50” value [8] was “less than 20 mg/kg”. For the same molecule, the “dose producing deaths / oral lethal dose” value [9] was “less than 2 mg/kg”.

With `CCN(CC)c1nc(N(CC)CC)c2c(ccc3c2ccn3Cc2ccccc2C(F)(F)F)n1` [Compound 5, 1,3-bis-(diethylamino)-7-(2-trifluromethyl)benzyl-7H-pyrrolo[3,2-f]quinazoline] the IC50 [1] was 46 ng/mL (≈ 98 nM), the IC50 [2] was 104 ng/mL (≈ 222 nM) and the “oral dose range giving 100% cure against P. berghei” value ([5]; Thompson test) was 10 to 80 mg/kg. For the same molecule, the “# Mice Alive Day 30/Total” value ([5]; 160 mg/kg/day) was 4/8, the “# Mice Alive Day 30/Total” value ([5]; 80-10 mg/kg/day) was 8/8 and the “# Mice Dead/Day Died” value ([5]; 80-10 mg/kg/day) was “none”. For the same molecule, the “in vitro activity relative to lead compound 1” value [10] was “over ten thousand fold less active”.
